What was measured:
redroot pigweed = assay: Test A pre-/postemergence herbicide test; type: in vivo, Amaranthus retroflexus
Procedure, shortened: (§1)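 Both application timings were run together: directed soil spray over freshly planted seeds in sandy loam, and runoff spray onto 2–10 cm seedlings. Evaluation after ~10 days in greenhouse used a 0–100 visual scale versus untreated controls.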

large crabgrass [1] = assay: Test A pre-/postemergence herbicide test; type: in vivo, Digitaria sanguinalis
Procedure, shortened: as §1

Surinam grass = assay: Test B pre-/postemergence herbicide test; type: in vivo, Urochloa decumbens; conditions: for Surinam Grass plant response rating: postemergence
Procedure, shortened: (§2)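 Formulation: non-phytotoxic solvent mix with surfactant. Timing: preemergence on seed and postemergence on 2–18 cm plants, applied concurrently. Readout after 13–15 d greenhouse: visual 0–100 control rating against controls.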

large crabgrass [2] = assay: Test B pre-/postemergence herbicide test; type: in vivo, Digitaria sanguinalis; conditions: for Crabgrass, Large plant response rating: postemergence
Procedure, shortened: as §2

barnyardgrass [3] = assay: Test B pre-/postemergence herbicide test; type: in vivo, Echinochloa crus-galli; conditions: for Barnyardgrass plant response rating: postemergence
Procedure, shortened: (§3)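 Visual rating, 0 (no effect) to 100 (complete control), versus untreated controls after 13–15 d in greenhouse. Pre- and postemergence applications (postemergence plants 2–18 cm, 1–4 leaves); flooded paddy arm at 2-leaf stage. Compounds in non-phytotoxic solvent plus surfactant.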

rice = assay: Test B flooded paddy test; type: in vivo, Oryza sativa; conditions: 1000 g ai/ha, scale 0 to 100 (0 no effect, 100 complete control)
Procedure, shortened: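 Scale 0–100: zero equals no visible effect, 100 complete control, judged by eye relative to controls. Timing: 13 to 15 days in greenhouse post-treatment. Growth stage at spraying: two leaves (paddy) or one to four leaves, 2–18 cm (postemergence).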

giant foxtail [4] = assay: Test A pre-/postemergence herbicide test; type: in vivo, Setaria faberi
Procedure, shortened: as §1

barnyardgrass [5] = assay: Test A pre-/postemergence herbicide test; type: in vivo, Echinochloa crus-galli
Procedure, shortened: as §1

giant foxtail [6] = assay: Test B pre-/postemergence herbicide test; type: in vivo, Setaria faberi; conditions: for Foxtail, Giant plant response rating: postemergence
Procedure, shortened: as §2

corn = assay: Test B pre-/postemergence herbicide test; type: in vivo, Zea mays; conditions: for Corn plant response rating: postemergence
Procedure, shortened: as §2

pigweed = assay: Test B pre-/postemergence herbicide test; type: in vivo, Amaranthus retroflexus; conditions: for Pigweed plant response rating: postemergence
Procedure, shortened: as §2

lambsquarters = assay: Test B pre-/postemergence herbicide test; type: in vivo, Chenopodium album; conditions: for Lambsquarters plant response rating: postemergence
Procedure, shortened: as §2

ducksalad = assay: Test B flooded paddy test; type: in vivo, Heteranthera limosa; conditions: 1000 g ai/ha, scale 0 to 100 (0 no effect, 100 complete control)
Procedure, shortened: (§4)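 Visual ratings, 0 (no effect) to 100 (complete control), made versus controls after 13–15 d greenhouse. Paddy plants treated at 2-leaf stage; postemergence plants at 1- to 4-leaf stage, 2–18 cm tall.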

velvetleaf [7] = assay: Test B pre-/postemergence herbicide test; type: in vivo, Abutilon theophrasti; conditions: for Velvetleaf plant response rating: postemergence
Procedure, shortened: as §2

morningglory [8] = assay: Test B pre-/postemergence herbicide test; type: in vivo, Ipomoea coccinea; conditions: for Morningglory plant response rating: postemergence
Procedure, shortened: as §3

cocklebur = assay: Test B pre-/postemergence herbicide test; type: in vivo, Xanthium strumarium; conditions: for Cocklebur plant response rating: postemergence
Procedure, shortened: as §3

barnyardgrass [9] = assay: Test B flooded paddy test; type: in vivo, Echinochloa crus-galli; conditions: 1000 g ai/ha, scale 0 to 100 (0 no effect, 100 complete control)
Procedure, shortened: as §4

wheat = assay: Test B postemergence herbicide test; type: in vivo, Triticum aestivum; set-up: key to Wheat plant response rating: 0 = no effect, 100 = complete control; conditions: postemergence
Procedure, shortened: as §4

wild oat = assay: Test B postemergence herbicide test; type: in vivo, Avena fatua; conditions: postemergence
Procedure, shortened: as §4

blackgrass = assay: Test B postemergence herbicide test; type: in vivo, Alopecurus myosuroides; conditions: postemergence
Procedure, shortened: as §4

velvetleaf [10] = assay: Test A pre-/postemergence herbicide test; type: in vivo, Abutilon theophrasti
Procedure, shortened: as §1

[11] = tested on: small flower umbrella sedge; assay: Test B flooded paddy test; type: in vivo, Cyperus difformis; conditions: 1000 g ai/ha, scale 0 to 100 (0 no effect, 100 complete control)
Procedure, shortened: as §4

morningglory [12] = assay: Test A pre-/postemergence herbicide test; type: in vivo, Ipomoea spp.
Procedure, shortened: as §1

[13] = Postemergence, 500 g ai/ha, 0 to 100 scale, 0 no effect, 100 complete control
[14] = Postemergence, 2000 g ai/ha, 0 to 100 scale, 0 no effect, 100 complete control
[15] = Preemergence, 2000 g ai/ha, visual rating, 0 to 100 scale (0 no effect, 100 complete control)
[16] = preemergence, 500 g ai/ha, visual injury, 0 to 100 scale (0 no effect, 100 complete control)
[17] = 125 g ai/ha, 0 is no effect, 100 is complete control, preemergence
[18] = 125 g ai/ha, visual rating, scale 0 (no effect) to 100 (complete control)
[19] = 500 g ai/ha, visual rating, 0 = no effect, 100 = complete control, preemergence
[20] = 500 g ai/ha, scale 0 to 100, 0 is no effect, 100 is complete control

With `CCc1nn(C2CCCC2)nc1C(=O)Nc1cccc(C(=O)N(C)C)c1` [Compound 355] the “Pigweed plant response rating” value (redroot pigweed; [13]) was 40, the “Plant response rating, Pigweed” value (redroot pigweed; [14]) was 90 and the “Pigweed plant response rating” value (redroot pigweed; [15]) was 50. For the same compound, the “Pigweed plant response rating” value (redroot pigweed; [16]) was 10, the “Crabgrass, Large plant response rating” value (large crabgrass [1]; [13]) was 10 and the “Plant response rating, Crabgrass, Large” value (large crabgrass [1]; [14]) was 30. For the same compound, the “Crabgrass, Large plant response rating” value (large crabgrass [1]; [15]) was 50, the “Crabgrass, Large plant response rating” value (large crabgrass [1]; [16]) was 20 and the “Plant response rating (0 to 100 scale), Surinam Grass” value (Surinam grass; [17]) was 40. For the same compound, the “Surinam Grass plant response rating” value (Surinam grass; [18]) was 10, the “Plant response rating, Surinam Grass” value (Surinam grass; [19]) was 80 and the “Surinam Grass plant response rating” value (Surinam grass; [20]) was 20. For the same compound, the “Plant response rating (0 to 100 scale), Crabgrass, Large” value (large crabgrass [2]; [17]) was 70, the “Crabgrass, Large plant response rating” value (large crabgrass [2]; [18]) was 10 and the “Plant response rating, Crabgrass, Large” value (large crabgrass [2]; [19]) was 100. For the same compound, the “Crabgrass, Large plant response rating” value (large crabgrass [2]; [20]) was 10, the “Plant response rating (0 to 100 scale), Barnyardgrass” value (barnyardgrass [3]; [17]) was 70 and the “Barnyardgrass plant response rating” value (barnyardgrass [3]; [18]) was 0. The “Plant response rating, Barnyardgrass” value (barnyardgrass [3]; [19]) was 90, the “Barnyardgrass plant response rating” value (barnyardgrass [3]; [20]) was 10 and the “Rice plant response rating” value (rice) was 50. The “Foxtail, Giant plant response rating” value (giant foxtail [4]; [13]) was 10, the “Plant response rating, Foxtail, Giant” value (giant foxtail [4]; [14]) was 45 and the “Foxtail, Giant plant response rating” value (giant foxtail [4]; [15]) was 60. The “Foxtail, Giant plant response rating” value (giant foxtail [4]; [16]) was 20, the “Barnyardgrass plant response rating” value (barnyardgrass [5]; [13]) was 40 and the “Plant response rating, Barnyardgrass” value (barnyardgrass [5]; [14]) was 75. For the same compound, the “Barnyardgrass plant response rating” value (barnyardgrass [5]; [15]) was 80, the “Barnyardgrass plant response rating” value (barnyardgrass [5]; [16]) was 50 and the “Plant response rating (0 to 100 scale), Foxtail, Giant” value (giant foxtail [6]; [17]) was 10. For the same compound, the “Foxtail, Giant plant response rating” value (giant foxtail [6]; [18]) was 20, the “Plant response rating, Foxtail, Giant” value (giant foxtail [6]; [19]) was 90 and the “Foxtail, Giant plant response rating” value (giant foxtail [6]; [20]) was 30. The “Plant response rating (0 to 100 scale), Corn” value (corn; [17]) was 20, the “Corn plant response rating” value (corn; [18]) was 0 and the “Plant response rating, Corn” value (corn; [19]) was 60. For the same compound, the “Corn plant response rating” value (corn; [20]) was 0, the “Plant response rating (0 to 100 scale), Pigweed” value (pigweed; [17]) was 50 and the “Pigweed plant response rating” value (pigweed; [18]) was 20. For the same compound, the “Plant response rating, Pigweed” value (pigweed; [19]) was 100, the “Pigweed plant response rating” value (pigweed; [20]) was 50 and the “Plant response rating (0 to 100 scale), Lambsquarters” value (lambsquarters; [17]) was 80. The “Lambsquarters plant response rating” value (lambsquarters; [18]) was 10, the “Plant response rating, Lambsquarters” value (lambsquarters; [19]) was 100 and the “Lambsquarters plant response rating” value (lambsquarters; [20]) was 70. For the same compound, the “Ducksalad plant response rating” value (ducksalad) was 70, the “Plant response rating (0 to 100 scale), Velvetleaf” value (velvetleaf [7]; [17]) was 0 and the “Velvetleaf plant response rating” value (velvetleaf [7]; [18]) was 30. For the same compound, the “Velvetleaf plant response rating” value (velvetleaf [7]; [20]) was 50, the “Plant response rating (0 to 100 scale), Morningglory” value (morningglory [8]; [17]) was 10 and the “Morningglory plant response rating” value (morningglory [8]; [18]) was 10. The “Plant response rating, Morningglory” value (morningglory [8]; [19]) was 10, the “Morningglory plant response rating” value (morningglory [8]; [20]) was 40 and the “Plant response rating (0 to 100 scale), Cocklebur” value (cocklebur; [17]) was 0. The “Cocklebur plant response rating” value (cocklebur; [18]) was 0, the “Plant response rating, Cocklebur” value (cocklebur; [19]) was 10 and the “Cocklebur plant response rating” value (cocklebur; [20]) was 10. For the same compound, the “Barnyardgrass plant response rating” value (barnyardgrass [9]) was 50, the “Wheat plant response rating” value (wheat; [18]) was 0 and the “Wheat plant response rating” value (wheat; [20]) was 20. The “Oat, Wild plant response rating” value (wild oat; [18]) was 0, the “Oat, Wild plant response rating” value (wild oat; [20]) was 30 and the “Blackgrass plant response rating” value (blackgrass; [18]) was 0. The “Blackgrass plant response rating” value (blackgrass; [20]) was 20, the “Velvetleaf plant response rating” value (velvetleaf [10]; [13]) was 15 and the “Plant response rating, Velvetleaf” value (velvetleaf [10]; [14]) was 65. The “Velvetleaf plant response rating” value (velvetleaf [10]; [15]) was 55, the “Velvetleaf plant response rating” value (velvetleaf [10]; [16]) was 25 and the “Sedge, Umbrella plant response rating” value [11] was 70. The “Morningglory plant response rating” value (morningglory [12]; [13]) was 15, the “Plant response rating, Morningglory” value (morningglory [12]; [14]) was 75 and the “Morningglory plant response rating” value (morningglory [12]; [15]) was 40. For the same compound, the “Morningglory plant response rating” value (morningglory [12]; [16]) was 10.
